# Measurements published in patent publication US20180221435A1, “ITCH TREATMENT USING A COMBINATION OF NEUROKININ-1, GASTRIN RELEASING PEPTIDE, AND GLUTAMATE RECEPTOR ANTAGONISTS” (The Regents of the University of California, priority 2013, published 2018).
# Entries after “also recorded” stand apart in the source; their conditions may differ.
# Tests used:
# [1] = test system: superficial dorsal horn neurons; assay: In vivo single-unit recording, id chloroquine-evoked firing, spinal superfusion of antagonists; parameters: species or system mice
# Experimental: (§1) The single-unit recording from the lumbar spinal cord was conducted as previously detailed [Akiyama T et al., Journal of neurophysiology 102(4):2176-2183 (2009); Akiyama T et al., The Journal of neuroscience: the official journal of the Society for Neuroscience 29(20):6691-6699 (2009)]. Anesthesia was induced by sodium pentobarbital (60 mg/kg ip) and maintained by supplemental injections (10-20 mg/kg/hr). A gravity-driven perfusion system allowed artificial cerebrospinal fluid (Krebs: 117 mM NaCl, 3.6 mM KCl, 2.5 mM CaCl2, 1.2 mM MgCl2, 1.2 mM NaH2PO4, 25 mM NaHCO3 and 11 mM glucose which was equilibrated with 95% 02 and 5% CO2 at 37° C.) to be superfused continually over the exposed lumbosacral spinal cord [Akiyama T et al., PloS one 6(7):e22665 (2011)]. A tungsten microelectrode recorded single-unit activity in the lumbar spinal cord. A chemical search strategy [Akiyama T et al., Journal of neurophysiology 102(4):2176-2183 2009; Akiyama T et al., The Journal of neuroscience: the official journal of the Society for Neuroscience 29(20):6691-6699 (2009)] was used to identify and isolate chloroquine-responsive units. Our search strategy was intended to maximize the chance of isolating a chloroquine-responsive neuron; it was assumed that such neurons either gave rise to ascending projections, or served as interneurons in segmental scratch-reflex circuitry, and no attempt was presently made to distinguish between these possibilities.
# Briefly, a small (˜0.25 μl) intradermal (id) microinjection of chloroquine (100 μg/μl) was made in the ventral hindpaw and a spontaneously active unit in the superficial lumbar dorsal horn (depth<300 um) was isolated. After the spontaneous activity had waned, chloroquine (1 μl, 100 μg/μl) was injected again at the same site through the same needle. […] Responses were usually recorded for at least 30 minutes, although in many cases unit firing declined over a shorter period.
# Action potentials were recorded to a computer and counted using Chart software (AD Instruments, Colorado Springs Colo.) and Spike2 software (CED Instruments). Ongoing responses elicited by chloroquine, histamine, or AITC were averaged at 20-second intervals before, during and after the antagonist application, and compared by one way repeated-measures analysis of variance (ANOVA) followed by post-hoc Bonferroni test, with p<0.05 set as significant. The mean firing rate was calculated over a 20-second period 40 seconds after the antagonist application, and compared by one way ANOVA followed by post-hoc Bonferroni test, with p<0.05 set as significant. The criterion for decrease in ongoing firing was >70% decrease below the ongoing activity elicited by pruritogen over a 20-second period 40 seconds after the antagonist application. Mean peak responses elicited by noxious pinch were compared by one way repeated-measures ANOVA followed by post-hoc Bonferroni test, with p<0.05 set as significant. At the end of each experiment, an electrolytic lesion was made at the spinal cord recording site. The spinal cord was postfixed in 10% buffered formalin, cut in 50 μm frozen sections, and examined under the light microscope to identify lesions.
# [2] = test system: superficial dorsal horn neurons; assay: Baseline activity of superficial dorsal horn neurons before and after antagonist application; format: in vivo, mice; settings: ± SEM
# Experimental: as §1
# There was no significant effect of any of the antagonists on the baseline activity of superficial dorsal horn neurons that were subsequently show to respond to pruritogens. […] Values prior to, and after administration of each antagonist individually or in combination, are as follows. NK-1 antagonist L-733060: pre-application 0.88 Hz±0.23 (SEM), post-antagonist 0.72 Hz±0.19 (n=10). GRPR antagonist RC-3095: pre-application 0.54 Hz±0.54, post-antagonist: 0.53 Hz±0.53 (n=4). CNQX: pre-application 0.53 Hz±0.14, post-antagonist 0.64 Hz±0.21 (n=22). CNQX+L-733060: pre-application 0.52 Hz±0.17, post-antagonists 0.43 Hz±0.11 (n=26). CNQX+L-733060+RC-3095: pre-application 0.14 Hz±0.06, post-antagonists 0.17 Hz±0.06 (n=9).
# [3] = test system: histamine-evoked scratching; assay: Histamine-evoked scratching behavior after intrathecal antagonists; format: in vivo, mice; settings: intrathecal CNQX 20 nmol, 5 min before id histamine 271 nmol
# Excerpt: The fur on the rostral back was shaved and mice were habituated to the Plexiglas recording arena one week prior to testing. For intrathecal injections, either vehicle (saline), the GRP receptor antagonist RC-3095 (0.3 nmol; Sigma-Aldrich, St. Louis Mo.), the NK-1 antagonist L-733060 (22.7 nmol; Tocris Bioscience, Minneapolis, Minn.), the AMPA/kainate antagonist CNQX (20 nmol; Tocris Bioscience), a combination of CNQX (20 nmol) and L-733060 (22.7 nmol), or a combination of RC-3095 (0.3 nmol), CNQX (20 nmol) and L-733060 (22.7 nmol), was administered by lumbar puncture, followed 5 minutes later by id injection (10 μl) of either chloroquine (193 nmol; Sigma-Aldrich) or histamine (271 nmol; Sigma-Aldrich). Microinjections were made id in the nape of the neck using a 30 G needle attached to a Hamilton microsyringe by PE-50 tubing. Immediately after the id injection the mouse was placed into the arena and videotaped from above for 30 min. Generally 3-4 mice were injected and videotaped simultaneously. Immediately after commencing videotaping all investigators left the room.
# Videotapes were reviewed by investigators blinded to the treatment, and the number of scratch bouts was counted at 5-minute intervals. […] Hind paw movements directed away from the injection site (e.g., ear-scratching) and grooming movements were not counted. […]
compound,measurement,setting,value
N#Cc1cc2[nH]c(=O)c(=O)[nH]c2cc1[N+](=O)[O-] [CNQX],chloroquine-evoked firing compared to vehicle superfusion,"[1]; 40-60 s of superfusion, normalized firing, vs vehicle",significantly attenuated chloroquine-evoked firing
same,chloroquine-evoked firing in NS cells,"[1]; NS units, vs vehicle",significantly reduced
same,chloroquine-evoked firing in WDR cells,"[1]; WDR units, vs vehicle",significantly reduced
same,"chloroquine-evoked firing, effect of spinal superfusion",[1]; relative to chloroquine-evoked response prior to spinal superfusion,significantly attenuated during and after spinal superfusion; also recorded: reduced
same,"baseline neuronal firing rate, post-antagonist",[2]; averaged over 1 min following antagonist application,0.64 Hz
same,"baseline neuronal firing rate, pre-application",[2]; averaged over 1 min prior to antagonist application,0.53 Hz
same,histamine-evoked scratching (scratch bouts/30 minutes),[3],significantly decreased; also recorded: significantly reduced; also recorded: prevented histamine-evoked scratching behavior
